# Assay results: US20250144094A1 (Erasca, Inc., priority 2021, published 2025)
# pIC50: −log10 of the molar value.
# Biological target: Recombinant human ULK1 (1-649) (Homo sapiens (Human), UniProt O75385)
# Experiment: ULK1 ADP Glo kinase activity assay (MBP substrate)
# Settings: 25° C., 40 minutes, read-out: ULK1 biochemical IC50
# In short: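 GST-tagged ULK1 (1-649) from Sf9 cells phosphorylated MBP, with ATP, for 40 min at 25 °C across a 12-point series from 10 uM. ADP formed was quantified by ADP-Glo luminescence against DMSO controls. IC50 came from a four-parameter variable-slope fit of log concentration.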
# Recombinant human ULK1 (1-649), sequence (O75385 1-649): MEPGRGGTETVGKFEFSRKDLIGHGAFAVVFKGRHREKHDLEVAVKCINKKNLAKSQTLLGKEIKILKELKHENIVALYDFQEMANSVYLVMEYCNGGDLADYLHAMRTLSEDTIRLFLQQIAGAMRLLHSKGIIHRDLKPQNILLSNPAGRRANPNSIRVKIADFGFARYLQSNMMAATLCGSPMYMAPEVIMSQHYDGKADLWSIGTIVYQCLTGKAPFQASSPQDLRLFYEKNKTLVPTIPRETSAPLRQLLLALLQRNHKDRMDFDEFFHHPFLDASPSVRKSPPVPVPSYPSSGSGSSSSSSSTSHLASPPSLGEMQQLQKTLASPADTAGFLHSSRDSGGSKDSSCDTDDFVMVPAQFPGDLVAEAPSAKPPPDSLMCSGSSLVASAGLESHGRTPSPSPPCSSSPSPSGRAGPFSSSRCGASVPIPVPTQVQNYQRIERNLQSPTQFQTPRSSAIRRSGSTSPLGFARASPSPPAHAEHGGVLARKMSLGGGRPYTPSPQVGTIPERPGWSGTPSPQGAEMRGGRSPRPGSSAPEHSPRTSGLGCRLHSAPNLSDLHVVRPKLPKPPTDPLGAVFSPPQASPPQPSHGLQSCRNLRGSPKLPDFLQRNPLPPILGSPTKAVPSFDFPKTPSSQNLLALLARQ
row,Structure (SMILES),pIC50
1,"CS(=O)(=O)c1cc(-c2nc(Nc3cc4c(cc3Cl)CNCC4)ncc2C(F)(F)F)sc1C1CCOCC1 [Example 97, 7-chloro-N-(4-(4-(methylsulfonyl)-5-(tetrahydro-2H-pyran-4-yl)thiophen-2-yl)-5-(trifluoromethyl)pyrimidin-2-yl)-1,2,3,4-tetrahydroisoquinolin-6-amine]",≥ 8.00
2,"CN1CCc2cc(Nc3ncc(C(F)(F)F)c(-c4cc(S(C)(=O)=O)cs4)n3)c(F)cc2C1 [Example 98, 7-fluoro-2-methyl-N-(4-(4-(methylsulfonyl)thiophen-2-yl)-5-(trifluoromethyl)pyrimidin-2-yl)-1,2,3,4-tetrahydroisoquinolin-6-amine]",≥ 8.00
3,"CS(=O)(=O)c1csc(-c2nc(Nc3cc4c(cc3Cl)CCNC4)ncc2C(F)(F)F)c1 [Example 99, 6-chloro-N-(4-(4-(methylsulfonyl)thiophen-2-yl)-5-(trifluoromethyl)pyrimidin-2-yl)-1,2,3,4-tetrahydroisoquinolin-7-amine]",≥ 8.00
4,"CN1CCc2cc(Cl)c(Nc3ncc(C(F)(F)F)c(-c4cc(S(C)(=O)=O)cs4)n3)cc2C1 [Example 100, 6-chloro-2-methyl-N-(4-(4-(methylsulfonyl)thiophen-2-yl)-5-(trifluoromethyl)pyrimidin-2-yl)-1,2,3,4-tetrahydroisoquinolin-7-amine]",≥ 8.00
5,"CS(=O)(=O)c1csc(-c2nc(Nc3ccc4c(c3)CNCC4)ncc2C(F)(F)F)c1 [Example 101, N-[4-(4-methanesulfonylthiophen-2-yl)-5-(trifluoromethyl)pyrimidin-2-yl]-1,2,3,4-tetrahydroisoquinolin-7-amine]",≥ 8.00
6,"CN1CCc2ccc(Nc3ncc(C(F)(F)F)c(-c4cc(S(C)(=O)=O)cs4)n3)cc2C1 [Example 102, N-[4-(4-methanesulfonylthiophen-2-yl)-5-(trifluoromethyl)pyrimidin-2-yl]-2-methyl-1,2,3,4-tetrahydroisoquinolin-7-amine]",≥ 8.00
7,"CN1CCN(c2ccc(Nc3ncc(C(F)(F)F)c(-c4cc(S(C)(=O)=O)cs4)n3)cc2)CC1 [Example 103, N-(4-(4-methylpiperazin-1-yl)phenyl)-4-(4-(methylsulfonyl)thiophen-2-yl)-5-(trifluoromethyl)pyrimidin-2-amine]",≥ 8.00
8,"CS(=O)(=O)c1cc(-c2nc(Nc3cc4c(cc3Cl)CNCC4)ncc2C(F)(F)F)sc1C1CCS(=O)(=O)CC1 [Example 104, 4-(5-(2-((7-chloro-1,2,3,4-tetrahydroisoquinolin-6-yl)amino)-5-(trifluoromethyl)pyrimidin-4-yl)-3-(methylsulfonyl)thiophen-2-yl)tetrahydro-2H-thiopyran 1,1-dioxide]",≥ 8.00
9,"CS(=O)(=O)c1csc(-c2nc(Nc3ccc4c(c3)CCNC4)ncc2C(F)(F)F)c1 [Example 105, N-(4-(4-(methylsulfonyl)thiophen-2-yl)-5-(trifluoromethyl)pyrimidin-2-yl)-1,2,3,4-tetrahydroisoquinolin-6-amine]",≥ 8.00
10,"CS(=O)(=O)c1csc(-c2nc(Nc3cc4c(cc3Cl)CN(C3CC3)CC4)ncc2C(F)(F)F)c1 [Example 107, 7-chloro-2-cyclopropyl-N-[4-(4-methylsulfonyl-2-thienyl)-5-(trifluoromethyl)pyrimidin-2-yl]-3,4-dihydro-1H-isoquinolin-6-amine]",7.30 to 8.00
11,"CS(=O)(=O)c1csc(-c2nc(Nc3cc4c(cc3Cl)CN(CC(F)(F)F)CC4)ncc2C(F)(F)F)c1 [Example 108, 7-chloro-N-[4-(4-methylsulfonyl-2-thienyl)-5-(trifluoromethyl)pyrimidin-2-yl]-2-(2,2,2-trifluoroethyl)-3,4-dihydro-1H-isoquinolin-6-amine]",6.30 to 7.00
12,"CN1CCc2cc(Nc3ncc(C(F)(F)F)c(-c4cc5c(s4)CN(C)CCS5(=O)=O)n3)c(Cl)cc2C1 [Example 109, 7-chloro-2-methyl-N-[4-(4-methyl-1,1-dioxo-3,5-dihydro-2H-thieno[2,3-f][1,4]thiazepin-7-yl)-5-(trifluoromethyl)pyrimidin-2-yl]-3,4-dihydro-1H-isoquinolin-6-amine]",≥ 8.00
13,"CS(=O)(=O)c1csc(-c2nc(Nc3cc4c(cc3F)CCNC4)ncc2C(F)(F)F)c1 [Example 110, 6-fluoro-N-[4-(4-methylsulfonyl-2-thienyl)-5-(trifluoromethyl)pyrimidin-2-yl]-1,2,3,4-tetrahydroisoquinolin-7-amine]",≥ 8.00
14,"CN1CCc2cc(F)c(Nc3ncc(C(F)(F)F)c(-c4cc(S(C)(=O)=O)cs4)n3)cc2C1 [Example 111, 6-fluoro-2-methyl-N-[4-(4-methylsulfonyl-2-thienyl)-5-(trifluoromethyl)pyrimidin-2-yl]-3,4-dihydro-1H-isoquinolin-7-amine]",≥ 8.00
15,"CS(=O)(=O)c1csc(-c2nc(Nc3cc4c(cc3Cl)CN(C3CC3)C4)ncc2C(F)(F)F)c1 [Example 113, 6-chloro-2-cyclopropyl-N-[4-(4-methylsulfonyl-2-thienyl)-5-(trifluoromethyl)pyrimidin-2-yl]isoindolin-5-amine]",7.30 to 8.00
16,"CS(=O)(=O)c1csc(-c2nc(Nc3cc4c(cc3F)CN(C3CC3)C4)ncc2C(F)(F)F)c1 [Example 114, 2-cyclopropyl-6-fluoro-N-[4-(4-methylsulfonyl-2-thienyl)-5-(trifluoromethyl)pyrimidin-2-yl]isoindolin-5-amine]",7.30 to 8.00
17,"CN1CCc2cc(Nc3ncc(C(F)(F)F)c(-c4cc(S(C)(=O)=O)cs4)n3)c(C3CC3)cc2C1 [Example 115, 7-cyclopropyl-2-methyl-N-[4-(4-methylsulfonyl-2-thienyl)-5-(trifluoromethyl)pyrimidin-2-yl]-3,4-dihydro-1H-isoquinolin-6-amine]",≥ 8.00
18,"CN1CCc2cc(Nc3ncc(C(F)(F)F)c(-c4cc5c(s4)C(=O)N(C)CCS5(=O)=O)n3)c(Cl)cc2C1 [Example 116, 7-[2-[(7-chloro-2-methyl-3,4-dihydro-1H-isoquinolin-6-yl)amino]-5-(trifluoromethyl)pyrimidin-4-yl]-4-methyl-1,1-dioxo-2,3-dihydrothieno[2,3-f][1,4]thiazepin-5-one]",≥ 8.00
19,"O=S1(=O)CCNCc2sc(-c3nc(Nc4cc5c(cc4Cl)CN(C4CC4)CC5)ncc3C(F)(F)F)cc21 [Example 117, 7-chloro-2-cyclopropyl-N-[4-(1,1-dioxo-2,3,4,5-tetrahydrothieno[2,3-f][1,4]thiazepin-7-yl)-5-(trifluoromethyl)pyrimidin-2-yl]-3,4-dihydro-1H-isoquinolin-6-amine]",≥ 8.00
20,"CS(=O)(=O)c1csc(-c2nc(Nc3cc4c(cc3F)CN(C3CC3)CC4)ncc2C(F)(F)F)c1 [Example 118, 2-cyclopropyl-7-fluoro-N-[4-(4-methylsulfonyl-2-thienyl)-5-(trifluoromethyl)pyrimidin-2-yl]-3,4-dihydro-1H-isoquinolin-6-amine]",7.30 to 8.00
21,"Cc1nn(C2CCN(C)CC2)cc1Nc1ncc(C(F)(F)F)c(-c2cc(S(C)(=O)=O)cs2)n1 [Example 119, N-[3-methyl-1-(1-methyl-4-piperidyl)pyrazol-4-yl]-4-(4-methylsulfonyl-2-thienyl)-5-(trifluoromethyl)pyrimidin-2-amine]",≥ 8.00
22,"Cc1nn(C2CN(C)C2)cc1Nc1ncc(C(F)(F)F)c(-c2cc(S(C)(=O)=O)cs2)n1 [Example 120, N-[3-methyl-1-(1-methylazetidin-3-yl)pyrazol-4-yl]-4-(4-methylsulfonyl-2-thienyl)-5-(trifluoromethyl)pyrimidin-2-amine]",7.30 to 8.00
